Among the targets are WEE1 (Homo sapiens, UniProt P30291); STK35 (Homo sapiens, UniProt Q8TDR2); HIPK4 (Homo sapiens, UniProt Q8NE63); NEK9 (Homo sapiens, UniProt Q8TD19); PDGFRB (Homo sapiens, UniProt P09619); GSK3B (Homo sapiens, UniProt P49841); GSK3A (Homo sapiens, UniProt P49840); CDK16 (Homo sapiens, UniProt Q00536); DMPK (Homo sapiens, UniProt Q09013); TLK1 (Homo sapiens, UniProt Q9UKI8); ITK (Homo sapiens, UniProt Q08881); ACVR1 (Homo sapiens, UniProt Q04771); CDK18 (Homo sapiens, UniProt Q07002); DCLK2 (Homo sapiens, UniProt Q8N568); ACVR2B (Homo sapiens, UniProt Q13705); EPHA2 (Homo sapiens, UniProt P29317); EPHA5 (Homo sapiens, UniProt P54756); STK11 (Homo sapiens, UniProt Q15831).

Common to all, as to test: biochemical
Common to all, as to design: KINOMEscan competition binding, DNA-tagged kinase against immobilised ligand, qPCR read-out
Conditions in all cases: read-out: Percent Control
In general terms: Real-time PCR tracks product formation cycle by cycle.

The target in assay [1] is T1, RSK3(Kin.Dom.1-N-terminal) (Homo sapiens, UniProt Q15349).
T1 construct: gene RPS6KA2; Kin.Dom.1 N-terminal

The next assay addresses T2, GSG2 (Homo sapiens, UniProt Q8TF76).
T2 construct: gene HASPIN

Chain of DCLK2 (Q8N568 whole entry): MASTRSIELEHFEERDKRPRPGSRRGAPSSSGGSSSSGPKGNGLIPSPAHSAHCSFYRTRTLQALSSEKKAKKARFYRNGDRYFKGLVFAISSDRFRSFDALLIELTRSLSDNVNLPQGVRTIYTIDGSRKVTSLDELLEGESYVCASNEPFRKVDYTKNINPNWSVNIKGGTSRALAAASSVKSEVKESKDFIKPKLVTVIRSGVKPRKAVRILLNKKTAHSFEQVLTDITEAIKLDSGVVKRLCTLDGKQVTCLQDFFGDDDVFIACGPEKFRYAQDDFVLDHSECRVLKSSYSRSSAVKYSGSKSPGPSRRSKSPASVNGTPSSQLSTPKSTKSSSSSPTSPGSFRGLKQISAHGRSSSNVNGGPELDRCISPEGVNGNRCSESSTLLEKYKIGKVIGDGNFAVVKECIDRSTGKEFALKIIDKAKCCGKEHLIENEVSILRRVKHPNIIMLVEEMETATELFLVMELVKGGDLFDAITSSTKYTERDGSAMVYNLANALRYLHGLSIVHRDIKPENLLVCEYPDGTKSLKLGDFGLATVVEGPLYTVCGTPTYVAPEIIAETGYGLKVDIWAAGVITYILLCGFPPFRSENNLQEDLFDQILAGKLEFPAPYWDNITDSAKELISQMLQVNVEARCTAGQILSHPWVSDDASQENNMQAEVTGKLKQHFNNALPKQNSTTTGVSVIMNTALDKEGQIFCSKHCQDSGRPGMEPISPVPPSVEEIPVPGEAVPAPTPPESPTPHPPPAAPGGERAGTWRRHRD
Chain of WEE1 (P30291 whole entry): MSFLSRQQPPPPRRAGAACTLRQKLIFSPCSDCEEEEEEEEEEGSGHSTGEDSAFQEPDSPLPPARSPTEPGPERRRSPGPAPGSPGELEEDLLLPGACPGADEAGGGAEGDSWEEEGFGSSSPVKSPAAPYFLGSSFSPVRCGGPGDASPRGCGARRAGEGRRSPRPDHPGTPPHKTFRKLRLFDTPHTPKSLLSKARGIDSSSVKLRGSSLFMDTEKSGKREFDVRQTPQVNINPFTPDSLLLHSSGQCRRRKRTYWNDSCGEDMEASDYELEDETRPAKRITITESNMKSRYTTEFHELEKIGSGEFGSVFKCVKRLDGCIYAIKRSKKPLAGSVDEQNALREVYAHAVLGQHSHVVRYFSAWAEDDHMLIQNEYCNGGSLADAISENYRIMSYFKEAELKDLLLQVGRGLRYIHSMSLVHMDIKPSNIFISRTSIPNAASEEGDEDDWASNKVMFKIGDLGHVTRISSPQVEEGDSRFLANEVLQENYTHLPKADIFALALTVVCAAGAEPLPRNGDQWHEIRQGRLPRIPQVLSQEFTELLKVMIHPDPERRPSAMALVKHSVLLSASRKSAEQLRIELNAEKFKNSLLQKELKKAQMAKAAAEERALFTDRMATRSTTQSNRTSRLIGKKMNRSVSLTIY
Chain of EPHA2 (P29317 whole entry): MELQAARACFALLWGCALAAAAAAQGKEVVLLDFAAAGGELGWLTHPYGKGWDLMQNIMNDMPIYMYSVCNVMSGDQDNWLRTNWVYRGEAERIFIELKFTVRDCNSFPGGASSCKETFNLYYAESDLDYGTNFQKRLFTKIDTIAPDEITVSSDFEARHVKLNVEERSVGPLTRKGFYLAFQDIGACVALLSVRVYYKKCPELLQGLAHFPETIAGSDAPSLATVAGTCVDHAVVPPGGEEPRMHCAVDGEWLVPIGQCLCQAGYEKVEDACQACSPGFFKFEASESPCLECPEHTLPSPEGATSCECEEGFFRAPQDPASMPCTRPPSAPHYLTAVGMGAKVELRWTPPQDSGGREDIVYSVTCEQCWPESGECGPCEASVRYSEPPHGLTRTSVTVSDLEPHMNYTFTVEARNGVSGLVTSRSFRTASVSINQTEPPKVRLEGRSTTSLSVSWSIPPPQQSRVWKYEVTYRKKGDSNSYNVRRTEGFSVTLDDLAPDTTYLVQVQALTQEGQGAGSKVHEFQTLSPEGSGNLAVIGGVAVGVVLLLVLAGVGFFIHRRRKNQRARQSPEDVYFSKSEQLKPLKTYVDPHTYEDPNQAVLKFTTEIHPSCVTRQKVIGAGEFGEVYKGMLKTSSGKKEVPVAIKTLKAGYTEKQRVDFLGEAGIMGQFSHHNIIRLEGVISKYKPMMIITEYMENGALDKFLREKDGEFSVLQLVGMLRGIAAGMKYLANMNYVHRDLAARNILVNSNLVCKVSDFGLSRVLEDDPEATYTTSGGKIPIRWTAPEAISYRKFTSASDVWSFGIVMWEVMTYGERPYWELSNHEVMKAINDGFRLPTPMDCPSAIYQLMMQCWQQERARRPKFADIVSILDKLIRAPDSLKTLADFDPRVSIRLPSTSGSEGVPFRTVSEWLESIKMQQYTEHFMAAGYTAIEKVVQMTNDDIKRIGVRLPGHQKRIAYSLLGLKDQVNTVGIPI
Chain of ACVR2B (Q13705 whole entry): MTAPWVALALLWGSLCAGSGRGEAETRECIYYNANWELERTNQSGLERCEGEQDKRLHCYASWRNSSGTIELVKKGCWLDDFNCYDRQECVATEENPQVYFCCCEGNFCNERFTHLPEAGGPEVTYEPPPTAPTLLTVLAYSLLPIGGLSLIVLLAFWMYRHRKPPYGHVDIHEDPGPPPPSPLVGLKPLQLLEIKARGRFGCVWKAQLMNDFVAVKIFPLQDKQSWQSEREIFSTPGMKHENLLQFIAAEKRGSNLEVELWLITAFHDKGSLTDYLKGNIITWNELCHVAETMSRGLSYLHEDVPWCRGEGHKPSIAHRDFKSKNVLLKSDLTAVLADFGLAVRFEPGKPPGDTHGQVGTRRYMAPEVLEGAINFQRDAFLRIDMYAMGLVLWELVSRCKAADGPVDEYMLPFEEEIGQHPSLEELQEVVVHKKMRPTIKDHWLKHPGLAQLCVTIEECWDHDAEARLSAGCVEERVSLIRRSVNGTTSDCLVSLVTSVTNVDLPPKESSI
Chain of DMPK (Q09013 whole entry): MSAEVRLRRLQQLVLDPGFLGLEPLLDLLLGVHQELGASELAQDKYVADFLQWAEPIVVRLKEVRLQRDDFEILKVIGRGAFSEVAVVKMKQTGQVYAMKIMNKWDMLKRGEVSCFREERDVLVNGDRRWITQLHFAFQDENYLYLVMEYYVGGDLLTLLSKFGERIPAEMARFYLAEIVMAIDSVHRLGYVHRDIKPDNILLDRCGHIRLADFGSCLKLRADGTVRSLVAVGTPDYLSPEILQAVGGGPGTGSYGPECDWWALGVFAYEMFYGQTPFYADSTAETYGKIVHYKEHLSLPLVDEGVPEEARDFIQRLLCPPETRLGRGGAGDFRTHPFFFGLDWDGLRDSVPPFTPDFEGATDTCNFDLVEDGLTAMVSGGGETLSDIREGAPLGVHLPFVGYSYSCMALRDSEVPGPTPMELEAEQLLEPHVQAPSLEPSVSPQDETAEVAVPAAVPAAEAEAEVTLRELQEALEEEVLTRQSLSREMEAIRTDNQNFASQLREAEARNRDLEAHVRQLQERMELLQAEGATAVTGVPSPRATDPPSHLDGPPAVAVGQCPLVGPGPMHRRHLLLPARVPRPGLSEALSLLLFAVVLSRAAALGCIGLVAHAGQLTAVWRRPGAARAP
Chain of CDK18 (Q07002 whole entry): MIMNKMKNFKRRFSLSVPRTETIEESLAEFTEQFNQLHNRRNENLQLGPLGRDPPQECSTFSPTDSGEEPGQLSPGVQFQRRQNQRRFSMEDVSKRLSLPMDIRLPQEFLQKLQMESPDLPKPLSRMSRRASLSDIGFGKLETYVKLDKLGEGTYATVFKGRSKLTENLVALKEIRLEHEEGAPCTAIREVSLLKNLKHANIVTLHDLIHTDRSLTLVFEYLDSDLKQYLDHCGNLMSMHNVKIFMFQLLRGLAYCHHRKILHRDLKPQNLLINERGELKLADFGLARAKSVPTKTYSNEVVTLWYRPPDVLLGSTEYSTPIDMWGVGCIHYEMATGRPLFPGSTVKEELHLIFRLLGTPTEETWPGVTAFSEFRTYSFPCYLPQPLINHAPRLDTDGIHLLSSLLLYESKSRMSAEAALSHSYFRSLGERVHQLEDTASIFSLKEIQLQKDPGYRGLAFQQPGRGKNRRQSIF
Chain of ACVR1 (Q04771 whole entry): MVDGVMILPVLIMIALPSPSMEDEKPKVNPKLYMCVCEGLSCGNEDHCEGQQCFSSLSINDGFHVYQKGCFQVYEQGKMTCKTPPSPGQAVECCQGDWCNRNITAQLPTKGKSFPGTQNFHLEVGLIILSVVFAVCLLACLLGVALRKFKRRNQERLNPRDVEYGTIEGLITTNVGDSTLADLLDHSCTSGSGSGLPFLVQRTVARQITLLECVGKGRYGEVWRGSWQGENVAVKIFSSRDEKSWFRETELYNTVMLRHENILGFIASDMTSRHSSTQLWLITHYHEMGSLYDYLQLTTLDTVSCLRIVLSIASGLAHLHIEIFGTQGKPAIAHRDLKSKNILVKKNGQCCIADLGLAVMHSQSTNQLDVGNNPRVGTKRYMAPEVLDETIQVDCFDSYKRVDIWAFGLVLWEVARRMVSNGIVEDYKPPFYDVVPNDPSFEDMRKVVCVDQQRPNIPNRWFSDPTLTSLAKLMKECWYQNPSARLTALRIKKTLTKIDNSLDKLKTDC
Chain of STK35 (Q8TDR2 whole entry): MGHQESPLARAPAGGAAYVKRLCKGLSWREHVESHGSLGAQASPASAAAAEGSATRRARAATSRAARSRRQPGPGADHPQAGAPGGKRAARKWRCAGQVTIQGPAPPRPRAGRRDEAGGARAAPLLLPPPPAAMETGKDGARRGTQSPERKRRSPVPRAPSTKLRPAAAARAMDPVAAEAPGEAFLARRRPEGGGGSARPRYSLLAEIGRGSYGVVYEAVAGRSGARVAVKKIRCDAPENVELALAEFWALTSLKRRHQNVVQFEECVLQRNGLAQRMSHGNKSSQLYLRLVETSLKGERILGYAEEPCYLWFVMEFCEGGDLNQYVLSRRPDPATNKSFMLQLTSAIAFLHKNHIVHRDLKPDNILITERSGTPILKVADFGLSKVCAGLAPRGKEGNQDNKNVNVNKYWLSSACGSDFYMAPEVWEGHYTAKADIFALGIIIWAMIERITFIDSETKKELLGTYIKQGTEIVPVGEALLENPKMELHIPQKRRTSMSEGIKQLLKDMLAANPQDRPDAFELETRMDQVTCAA

As to `Oc1ccc(C2=Cc3ccc(O)cc3OC2)cc1` [compound 1, idronoxil], the remaining binding at 10 µM on WEE1 was determined as 84%; at STK35, 88%; in assay [1] it was 89%; at HIPK4, 75%; on NEK9, 100%; at GSG2 it was 5.3%. In addition, the remaining binding at 10 µM at PDGFRB was 18%; on GSK3B it was 92%; on GSK3A, 74%; on CDK16, 93%; on DMPK, 92%; on TLK1 it was 71%. Moreover, the remaining binding at 10 µM was determined as 97% on ITK; 74% on ACVR1; 71% on CDK18; 73% at DCLK2; 53% at ACVR2B; 78% on EPHA2. In addition, the remaining binding at 10 µM at EPHA5 was 97%; on STK11, 81%.

The values are drawn from publication PMC10507085, “Pharmacological inhibition of TBK1/IKKε blunts immunopathology in a murine model of SARS-CoV-2 infection” (Nature Communications, 2023).
